According to PMC10999986, “Substrate specificity of a ketosynthase domain involved in bacillaene biosynthesis” (Beilstein Journal of Organic Chemistry, 2024):

Legend:
[1] = target: T1, BaeJ-KS2 (Bacillus amyloliquefaciens, UniProt Q1RS73); experiment: […] NMR of protein after incubation and ultrafiltration buffer exchange; proteinase K digest; conditions: 25 °C, 30 min; labelled compound; covalent binding to active-site Cys proposed
T1 construct: excised second ketosynthase domain (KS2, module 4) of BaeJ, His-tagged, heterologously expressed, Ni-NTA purified
T1 sequence (Q1RS73 entry or part of it): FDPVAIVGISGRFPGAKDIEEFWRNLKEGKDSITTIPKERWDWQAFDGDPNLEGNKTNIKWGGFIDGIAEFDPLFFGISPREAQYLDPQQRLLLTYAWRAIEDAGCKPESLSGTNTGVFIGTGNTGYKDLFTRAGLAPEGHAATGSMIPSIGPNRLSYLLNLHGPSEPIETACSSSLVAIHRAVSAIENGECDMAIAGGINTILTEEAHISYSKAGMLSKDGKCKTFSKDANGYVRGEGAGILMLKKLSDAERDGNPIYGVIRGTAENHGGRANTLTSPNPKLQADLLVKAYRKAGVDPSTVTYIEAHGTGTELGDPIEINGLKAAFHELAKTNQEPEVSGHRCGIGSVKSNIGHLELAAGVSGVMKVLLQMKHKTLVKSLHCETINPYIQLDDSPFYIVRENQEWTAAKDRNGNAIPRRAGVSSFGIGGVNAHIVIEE

[2] = target: T1, BaeJ-KS2; experiment: […] NMR of protein after incubation and ultrafiltration buffer exchange; type: binding; conditions: 25 °C, 30 min; labelled compound; active-site Cys replaced

SMILES	13C NMR of protein after incubation and ultrafiltration buffer exchange; protein [1]	thioester carbonyl 13C NMR signal [2]
CC(=O)NCCSC(=O)CCCNC(=O)[C@H](O)CC(C)C [(R)-11]	This observation supports binding of both substrate surrogates to BaeJ-KS2	(R)-11 is not bound to BaeJ-KS2-C222A after incubation and buffer exchange
CC(=O)NCCSC(=O)CCCNC(=O)[C@@H](O)CC(C)C [(S)-11]	for both samples obtained from the incubations with (S)-11 and (R)-11 signals were detected	No signal corresponding to a thioester carbonyl group was detected in the protein preparations
